According to US11667631B2, “FGFR4 inhibitor, preparation method therefor, and applications thereof” (Jiangsu Hansoh Pharmaceutical Group Co., Ltd., priority 2016, dated 2023):
Like-named read-outs stand apart in the source and are kept apart here.

Tests used:
[1] = target: FGFR1 kinase (Homo sapiens (Human), UniProt P11362); test: Enzymologic experiment of FGFR1 (TR-FRET); type: biochemical; details: FGFR1 kinase activity
Outline: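 FGFR1 at 0.1˜5 nM final with substrate peptide 5˜50 nM and ATP 10˜200 μM final, 0.5˜3 h at room temperature. Stopped with EDTA plus labeled antibody for 1 h; TR-FRET signal read at 665 nm, IC50 fitted from inhibition rates.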

[2] = test system: Hep 3B cells; test: Inhibition of Hep 3B cell proliferation (CellTiter-Glo); type: cell-based; details: Homo sapiens, Hep3B
[3] = test system: HuH-7 cells; test: Inhibition of HuH-7 cell proliferation (CellTiter-Glo); type: cell-based; details: Homo sapiens, read-out: HuH-7 IC50
Outline: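 HuH-7 cells plated and left 16–24 h, then exposed to serially diluted compound for 72 h at 37 °C, 5% CO2. Viability read by CellTiter-Glo luminescence. IC50 obtained by curve fitting of inhibition rates.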

[4] = test system: SK-HEP-1 cells; test: Inhibition of SK-HEP-1 cell proliferation (CellTiter-Glo); type: cell-based; details: Homo sapiens, read-out: SK-HEP-1 IC50
Outline: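 Cells seeded and allowed to attach 16–24 h, then exposed to serially diluted compound for 72 h at 37 °C, 5% CO2. Viability read by CellTiter-Glo luminescence; IC50 fitted from inhibition rates across concentrations.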

[5] = Pharmacokinetic (PK) analysis in rats; type: in vivo, Sprague Dawley (SD) rats; details: SD rats, single intragastric administration, 5 mg/kg; for Peak Time tmax: (sampling in hours); for AUC(0-t) / AUC(0-inf) / half-life / MRT / Cmax: Sprague-Dawley, rat, plasma, po; for AUC(0-t): read-out: Area Under Curve AUC0-t; for AUC(0-inf): read-out: Area Under Curve AUC0-∞; for half-life: read-out: Half-Time t1/2 (converted); for MRT: read-out: Mean Residence Time MRT; for Cmax: read-out: Plasma Concentration Cmax
Outline: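 Intravenous blood (0.2 ml) was collected into K2EDTA and centrifuged to obtain plasma. Plasma (40 μL) was protein-precipitated with 160 μL acetonitrile. Compound levels were measured by LC/MS/MS on a C18 column using 0.1% formic acid in water and acetonitrile at 0.8 mL/min.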

[6] = test system: Hep 3B cell line tumor; test: Pharmacodynamics test in vivo, Hep 3B tumor-bearing nude mice; details: Mus musculus, Hep3B, oral 30 mg/kg, 2 times/day, read-out: Tumor inhibition rate
Description: a, A Hep 3B cell line was taken from the cell bank, and the cells were resuscitated with the MEM culture medium (MEM+10% FBS+1% Glu+1% SP). The cells were placed in the cell culture bottle after resuscitation (cell type, date, and the name of the culturing person were marked on the bottle wall) and were incubated in a CO2 Incubator (the incubator temperature was 37° C., and the CO2 concentration was 5%).
b, The cells were passaged after 80-90% of the bottom of the culture bottle was covered by the cells. After passage, the cells were further incubated in the CO2 incubator. The process was repeated until the number of cells met the pharmacodynamic requirements in vivo.
c, The cultured cells were collected and counted by automatic cell counter. According to the counting results, the cells were resuspended with PBS to prepare a cell suspension (density: 7×10^7/mL), which was placed in the ice box for use.
a, Nude mouse was marked with a disposable universal ear tag for mouse and rat before inoculation, and the skin of the inoculated site was disinfected with 75% medical alcohol.
b, At the time of inoculation, the cell suspension was mixed well, 0.1˜1 mL of cell suspension was taken with a 1 mL syringe, after removing air bubbles, and the syringe was placed on an ice bag for use.
c, The nude mice were inoculated successively (the inoculated site was located on the right shoulder of the right back of the nude mice, and inoculated subcutaneously with 0.1 mL of cell suspension).
a, Tumor was measured on Day 14 to Day 16 after inoculation depending on the tumor growth, and tumor size was calculated.
Tumor volume calculation: tumor volume (mm^3)=length (mm)×width (mm)×width (mm)/2
b, According to the size of the tumor, the mice were grouped by random grouping.
c, According to the results of the grouping, the test drug was administered (administration method: oral administration, administration dose: 30 mg/kg, administration volume: 10 mL/kg, administration frequency: 2 times/day, […], vehicle: 0.5% CMC/1% Tween 80).
d, The tumor was measured and weighed twice a week after the test drug was administrated.
e, Animals were euthanized at the end of the test.

[7] = 72 h, read-out: Hep 3B IC50, Hep 3B cell proliferation, 72 hours, CellTiter-Glo
[8] = 216 h, 9 days of administration
[9] = 240 h, 10 days of administration

FGFR1 kinase, sequence (P11362 22-822): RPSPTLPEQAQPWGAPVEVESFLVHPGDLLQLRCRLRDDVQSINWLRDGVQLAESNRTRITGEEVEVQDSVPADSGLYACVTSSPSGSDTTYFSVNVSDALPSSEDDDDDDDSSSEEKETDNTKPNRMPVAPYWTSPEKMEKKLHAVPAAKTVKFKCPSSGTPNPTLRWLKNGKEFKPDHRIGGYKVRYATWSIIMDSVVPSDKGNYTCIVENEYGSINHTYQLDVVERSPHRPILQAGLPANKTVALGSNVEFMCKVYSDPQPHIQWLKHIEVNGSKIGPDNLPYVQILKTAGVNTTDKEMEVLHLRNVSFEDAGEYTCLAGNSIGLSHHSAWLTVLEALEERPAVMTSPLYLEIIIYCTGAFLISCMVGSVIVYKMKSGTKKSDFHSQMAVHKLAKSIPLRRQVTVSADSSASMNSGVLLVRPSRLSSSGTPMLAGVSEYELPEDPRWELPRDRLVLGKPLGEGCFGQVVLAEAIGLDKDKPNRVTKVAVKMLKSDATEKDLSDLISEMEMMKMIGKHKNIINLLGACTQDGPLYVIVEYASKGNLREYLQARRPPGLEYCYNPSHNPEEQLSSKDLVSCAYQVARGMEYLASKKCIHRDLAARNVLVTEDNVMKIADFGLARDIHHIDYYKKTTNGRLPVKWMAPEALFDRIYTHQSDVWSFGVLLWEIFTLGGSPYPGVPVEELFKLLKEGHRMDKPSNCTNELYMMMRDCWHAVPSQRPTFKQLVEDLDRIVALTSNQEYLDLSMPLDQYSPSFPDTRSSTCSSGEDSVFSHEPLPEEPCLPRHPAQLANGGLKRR

IC50 ([3]; HuH-7 cell proliferation, 72 hours, CellTiter-Glo) [nM]	IC50 ([4]; SK-HEP1, SK-HEP-1 cell proliferation, 72 hours, CellTiter-Glo) [nM]	Mean Residence Time MRT [5] [h]	SMILES	IC50 [1] [nM]	IC50 [2, 7] [nM]	IC50 ([3]; Huh-7, 72 h) [nM]	IC50 ([4]; SK-HEP1, 72 h) [nM]	Peak Time tmax [5] [h]	AUC(0-t) [5] [ng·h/mL]	AUC(0-inf) [5] [ng·h/mL]	half-life [5] [h]	MRT [5] [h]	Cmax [5] [ng/mL]	inhibition in vivo at 30 mg/kg [6, 8] [%]	inhibition in vivo at 30 mg/kg [6, 9] [%]	IC50 ([2]; Hep 3B cell proliferation, 72 hours, CellTiter-Glo, read-out: Hep 3B IC50) [nM]	inhibition in vivo at 30 mg/kg ([6]; 336 h, 14 days of administration) [%]
–	–	–	COCCNc1cc(NC(=O)N2CCCc3cc(CN4CCCOCC4=O)c(C=O)nc32)ncc1C#N [Example 6]	> 10000	1.1	7.4	> 10000	2	9120	9140	0.9	1	3500	78.2	–	–	–
–	–	–	COCCNc1cc(NC(=O)N2CCCc3cc(CN4CCCCOC4=O)c(C=O)nc32)ncc1C#N [Example 23, N-(5-Cyano-4-((2-methoxyethyl)amino)pyridin-2-yl)-7-formyl-6-((2-carbonyl-1,3-oxazepin-3-yl)methyl)-3,4-dihydro-1,8-naphthyridin-1(2H)-carboxamide]	–	4.6	6.7	> 10000	2	9110	9110	1.02	3.5	2310	–	89.8	–	–
–	–	–	COC1(CNc2cc(NC(=O)N3CCCc4cc(CN5CCCOCC5=O)c(C=O)nc43)ncc2C#N)CC1 [Example 25, N-(5-Cyano-4-(((1-methoxycyclopropyl)methyl)amino)pyridin-2-yl)-7-formyl-6-((3-carbonyl-1,4-oxazepin-4-yl)methyl)-3,4-dihydro-1,8-naphthyridin-1(2H)-carboxamide]	–	–	–	–	–	–	–	–	–	–	–	68.4	–	–
–	–	–	COC[C@@H](C)Oc1cc(NC(=O)N2CCCc3cc(CN4CCCOCC4=O)c(C=O)nc32)ncc1C#N [Example 28, (R)-N-(5-Cyano-4-((1-methoxypropan-2-yl)oxy)pyridin-2-yl)-7-formyl-6-((3-carbonyl-1,4-oxazepin-4-yl)methyl)-3,4-dihydro-1,8-naphthyridin-1(2H)-carboxamide]	–	–	–	–	–	–	–	–	–	–	74.3	–	–	–
2.6	> 10000	2.48	COC[C@@H](C)Nc1cc(NC(=O)N2CCCc3cc(CN4CCCCOC4=O)c(C=O)nc32)ncc1C#N [Example 29]	–	–	–	–	2	9460	9460	1.27	–	3380	–	–	0.6	182
–	–	–	N#Cc1cnc(NC(=O)N2CCCc3cc(CN4CCOCC4=O)c(C=O)nc32)cc1S[C@H]1CCOC1 [Example 55, (S)-N-(5-Cyano-4-((tetrahydrofuran-3-yl)thio)pyridin-2-yl)-7-formyl-6-((3-carbonylmorpholino)methyl)-3,4-dihydro-1,8-naphthyridin-1(2H)-carboxamide]	> 10000	14.5	36.1	> 10000	4	1940	1950	0.79	–	2340	33	–	–	–
–	–	–	N#Cc1cnc(NC(=O)N2CCCc3cc(CN4CCOCC4=O)c(C=O)nc32)cc1S[C@@H]1CCOC1 [Example 56, (R)-N-(5-Cyano-4-((tetrahydrofuran-3-yl)thio)pyridin-2-yl)-7-formyl-6-((3-carbonylmorpholino)methyl)-3,4-dihydro-1,8-naphthyridin-1(2H)-carboxamide]	> 10000	22.7	50.1	> 10000	4	6650	6780	0.96	–	1640	46.4	–	–	–
–	–	–	CO[C@H]1CCC[C@@H]1Nc1cc(NC(=O)N2CCCc3cc(CN4CCOCC4=O)c(C=O)nc32)ncc1C#N [Example 59, N-(5-Cyano-4-(((1S,2S)-2-methoxycyclopentyl)amino)pyridin-2-yl)-7-formyl-6-((3-carbonylmorpholino)methyl)-3,4-dihydro-1,8-naphthyridin-1(2H)-carboxamide]	> 10000	8.6	18.7	> 10000	2	1260	1260	0.86	2.23	2060	86.7	–	–	–
